Values quoted from earlier work, collected in patent US20110033536A1, “24-HOUR SUSTAINED-RELEASE METOCLOPRAMIDE” (POSIVISIONARY SOLUTIONS LLP, priority 2008, published 2011).

CCN(CC)CCNC(=O)c1cc(Cl)c(N)cc1OC [metoclopramide]
Plasma concentrations at which undesirable side effects (akathisia) are present (literature (Bateman 1979; Parlak 2005)): above 100 nanograms per milliliter | Plasma concentrations related to extrapyramidal effects (akathisia) (relationship stated as determined, no own test): above 120 ng/ml
